Measurements: patent publication US5639726A, “Peptide mediated enhancement of thrombolysis methods and compositions” (The Regents of the University of Michigan, priority 1994, dated 1997)
Ends that are not written are not given here.

How the values were obtained:
fibrin clot = test: In vitro clot lysis assay, fluorescein-labeled fibrin clots with recombinant PAI-1; type: biochemical, human
Method: Clot lysis assays were performed as previously described (Fay et al., 1994). A mixture of glu-plasminogen (0.2 μM), fluorescein-labeled fibrinogen (3 μM), PAI-1 (0.7 μM) was prepared. t-PA (20 nM) was added 30 minutes after clot formation and clot lysis was allowed to occur for 60 minutes at 37° C., after which the tubes were centrifuged (16,000×3 min), and 80 μL of the supernatant was removed and diluted into 1.2 mL of 10 mM Tris-HCl, 140 mM NaCl, pH 7.5. The fluorescence of this dilution was measured and % clot lysis was calculated, as previously described (Fay et al., 1994). The capacity of P1-P14 peptide to accelerate fibrinolysis in vitro, both in the absence and presence of platelets was also evaluated. Fluorescein-labeled fibrin clots were formed in the presence of recombinant PAI-1 (0.7 μM) and either P1-P14 peptide (55 μM), an irrelevant 14 amino acid peptide (55 μM), or no peptide. After 30 min at 37° C., fibrinolysis was initiated by the addition of t-PA (20 nM), and % clot lysis was determined 60 min later. Addition of P1-P14 peptide increased clot lysis from 28±7% to 90±6% (mean±SEM of triplicate experiments), whereas the control peptide had no effect on clot lysis either in the presence or absence of PAI-1 (FIG. 6a). In similar experiments, platelet-rich clots were formed by clotting fluorescein-labeled fibrinogen in the presence of 2.5×10^8 platelets/mL, and fibrinolysis was initiated by the addition of t-PA (75 pM).

PAI-1 [1] = target: T1, PAI-1 (Homo sapiens, UniProt P05121); test: Thermal denaturation of peptide treated PAI-1; conditions: FIG. 4
T1 construct: made in house; host or cells: E. coli (vector pET3a)
From the text: Circular dichroism (CD) spectra analysis (Strandberg et al., 1991) indicated similar secondary structural components for the PAI-1 mutants, as well as active and latent wild-type PAI-1.
(Lawrence et al., 1994c). […] As expected, active PAI-1 was much less thermally stable than latent PAI-1 or elastase cleaved PAI-1 (FIG. 4). […] This is precisely the behavior expected for a serpin with a peptide intercalated into β-sheet A (Carrell et al., 1991; Schulze et al., 1990; Bjork et al., 1992). […] If the 14 residue peptide were intercalated into β-sheet A, then the added length of the peptide bound to sheet A would be expected to increase the stability not decrease it.
Upon completion of peptide annealing, the incubation solution contained a mixture of annealed PAI-peptide, latent PAI, and excess peptide. For circular dichroism (CD) spectra, melting curves, and mass spectroscopy determinations, the excess peptide was removed. This was done by loading the mixture on a heparin-sepharose column which had been equilibrated with 0.05M sodium phosphate, 0.15M NaCl, 1 mM EDTA, 0.01% TWEEN-80, pH 6.6. Washing the column with this buffer removed the excess peptide. The PAI-peptide and latent PAI were eluted together with 0.05M Sodium phosphate, 1M NaCl, 1 mM EDTA, 0.01% TWEEN-80, pH 6.6. […] The absorbance at 280 nm was used to determine the final protein concentration. […]

PAI-1 [2] = target: T1, PAI-1; test: Kinetics of peptide annealing: residual PAI inhibitory activity assayed with β-trypsin and S-2222; type: biochemical; conditions: for k / kobs / t1/2 of PAI-1 inactivation: 25° C.
PAI-1 [3] = target: T1, PAI-1; test: Native gel electrophoresis of PAI incubated with peptide; type: binding
Method: SDS-polyacrylamide gel electrophoresis (SDS-PAGE) under nonreducing conditions was carried out according to the method of Laemmli (Laemmli, 1970) on 10% gels. Native gel electrophoresis with 5% gels was carried out by omitting SDS and boiling from Laemmli's method. All gels were stained with Coomassie brilliant blue. Gels of PAI-peptide samples were scanned with an LKB Ultroscan XL Laser Densitometer to determine the relative amounts of peptide-annealed and latent PAI.
Four of the five peptides have a net negative charge due to glutamic acid residues and the free carboxy terminus (FIG. 1). The wtPAI 8-mer has a net -1 charge (the carboxy terminus). The V→E PAI 8-mer (SEQ ID NO:3) and consensus 8-mer (SEQ ID NO:4) each have a -2 charge (the glutamic acid residue and the carboxyl group). […] The PAI 14-mer (SEQ ID NO:1) is uncharged since it contains no glutamic acid and the arginine and carboxyl groups neutralize each other. Because of the negative charges of 4 of the peptides, native gels of PAI annealed to these peptides should show a band which migrates more quickly than the band representative of free active PAI. Similarly, if one of these peptides is incubated with PAI but fails to form a strong interaction with PAI, native gels should show a band which migrates identically to the free PAI.

T1 sequence (P05121 24-402): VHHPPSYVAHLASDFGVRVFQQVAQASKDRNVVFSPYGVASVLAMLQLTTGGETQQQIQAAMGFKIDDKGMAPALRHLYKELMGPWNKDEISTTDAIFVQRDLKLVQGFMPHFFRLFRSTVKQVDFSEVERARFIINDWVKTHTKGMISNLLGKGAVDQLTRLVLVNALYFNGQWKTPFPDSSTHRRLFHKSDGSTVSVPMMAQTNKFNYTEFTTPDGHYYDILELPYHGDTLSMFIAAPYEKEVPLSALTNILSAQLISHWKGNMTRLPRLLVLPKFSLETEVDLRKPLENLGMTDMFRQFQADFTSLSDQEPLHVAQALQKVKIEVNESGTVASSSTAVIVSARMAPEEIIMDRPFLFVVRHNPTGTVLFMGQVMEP

thermal stability of peptide treated PAI-1 (PAI-1 [1]): very similar to latent PAI-1
half-life of PAI inactivation (PAI-1 [2]; 0.9 μM PAI, 64 μM peptide): 4.3 min
k (PAI-1 [2]; peptide 1.5 mM): .022 M⁻¹ s⁻¹
kobs (PAI-1 [2]; peptide 1.5 mM): .12 h⁻¹
t1/2 of PAI-1 inactivation (PAI-1 [2]; peptide 1.5 mM): 5.8 h
k (PAI-1 [2]; peptide 3.5 mM): .020 M⁻¹ s⁻¹
kobs (PAI-1 [2]; peptide 3.5 mM): .25 h⁻¹
t1/2 of PAI-1 inactivation (PAI-1 [2]; peptide 3.5 mM): 2.7 h
kobs (PAI-1 [2]; peptide 5.5 mM): .28 h⁻¹
t1/2 of PAI-1 inactivation (PAI-1 [2]; peptide 5.5 mM): 2.5 h
k (PAI-1 [2]; peptide 7 mM): .012 M⁻¹ s⁻¹
kobs (PAI-1 [2]; peptide 7 mM): .31 h⁻¹
t1/2 of PAI-1 inactivation (PAI-1 [2]; peptide 7 mM): 2.2 h
k (PAI-1 [2]; peptide 9 mM): .017 M⁻¹ s⁻¹
kobs (PAI-1 [2]; peptide 9 mM): .54 h⁻¹
t1/2 of PAI-1 inactivation (PAI-1 [2]; peptide 9 mM): 1.3 h
Substance: Ac-TVASSSTAVIVSAR [SEQ ID NO: 1, Thr-Val-Ala-Ser-Ser-Ser-Thr-Ala-Val-Ile-Val-Ser-Ala-Arg]
dependence of the degree of clot lysis on peptide concentration (fibrin clot): proportional
inhibition of PAI-1 function in the presence of fibrin (fibrin clot): nearly completely inhibited
effect on clot lysis in the absence of PAI-1 (fibrin clot; absence of PAI-1): no augmentation of fibrinolysis
clot lysis at 60 minutes (fibrin clot; presence of PAI-1 (0.7 μM), peptide 55 μM, t-PA 20 nM, 28±7% without peptide): 90±6%
electrophoretic mobility of active PAI incubated with peptide, native gel (PAI-1 [3]): a band at the same position as free active PAI
